Measurements reported in patent US20210255193A1, “LYSINE REACTIVE PROBES AND USES THEREOF” (The Scripps Research Institute, priority 2017, published 2021).
Each block holds one compound with its values, some of them ahead of it.

What was measured:
Assay in all cases: competitive isoTOP-ABPP
Assay type in all cases: binding
OLA1 Obg-like ATPase 1 = molecular target: T1, OLA1 Obg-like ATPase 1 (Homo sapiens, UniProt Q9NTK5); conditions: for isoTOP-ABPP reactivity ratio at lysine Q9NTK5_K248 / isoTOP-ABPP ratio (R) at liganded lysine Q9NTK5_K248 / R value (DMSO/fragment) for probe 1 labeling: 50 uM, in vitro; for isoTOP-ABPP reactivity ratio at lysine Q9NTK5_K248 / R value (DMSO/fragment) for probe 1 labeling: 231 sol; for isoTOP-ABPP ratio (R) at liganded lysine Q9NTK5_K248: sol, 231; for R value (DMSO/fragment) for probe 1 labeling: Q9NTK5_K248
T1 construct: endogenous in cells; host or cells: MDA-MB-231 (soluble fraction of lysate)
How it was run: (§1)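 Lysate + fragment (50 μM activated ester / 100 μM guanidinylating agent) or DMSO → 0.1 mM STP-alkyne, 1 h, RT → CuAAC to TEV tags (compound light, DMSO heavy) → LC-MS. R = heavy/light MS1 area; liganded lysine if R≥4.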

[1] = molecular target: T2, TRAP1 Heat shock protein 75 kDa, mitochondrial (Homo sapiens, UniProt Q12931); conditions: for isoTOP-ABPP reactivity ratio at lysine Q12931_K699 / isoTOP-ABPP ratio (R) at liganded lysine Q12931_K699 / R value (DMSO/fragment) for probe 1 labeling: 50 uM, in vitro; for isoTOP-ABPP reactivity ratio at lysine Q12931_K699 / R value (DMSO/fragment) for probe 1 labeling: 231 sol; for isoTOP-ABPP ratio (R) at liganded lysine Q12931_K699: sol, 231; for R value (DMSO/fragment) for probe 1 labeling: Q12931_K699
T2 construct: isoTOP-ABPP experiments performed in cell lysates (in vitro); endogenous in cells; host or cells: soluble proteome of human cancer cell lines (MDA-MB-231, Ramos, Jurkat)
T2 sequence (Q12931 60-704): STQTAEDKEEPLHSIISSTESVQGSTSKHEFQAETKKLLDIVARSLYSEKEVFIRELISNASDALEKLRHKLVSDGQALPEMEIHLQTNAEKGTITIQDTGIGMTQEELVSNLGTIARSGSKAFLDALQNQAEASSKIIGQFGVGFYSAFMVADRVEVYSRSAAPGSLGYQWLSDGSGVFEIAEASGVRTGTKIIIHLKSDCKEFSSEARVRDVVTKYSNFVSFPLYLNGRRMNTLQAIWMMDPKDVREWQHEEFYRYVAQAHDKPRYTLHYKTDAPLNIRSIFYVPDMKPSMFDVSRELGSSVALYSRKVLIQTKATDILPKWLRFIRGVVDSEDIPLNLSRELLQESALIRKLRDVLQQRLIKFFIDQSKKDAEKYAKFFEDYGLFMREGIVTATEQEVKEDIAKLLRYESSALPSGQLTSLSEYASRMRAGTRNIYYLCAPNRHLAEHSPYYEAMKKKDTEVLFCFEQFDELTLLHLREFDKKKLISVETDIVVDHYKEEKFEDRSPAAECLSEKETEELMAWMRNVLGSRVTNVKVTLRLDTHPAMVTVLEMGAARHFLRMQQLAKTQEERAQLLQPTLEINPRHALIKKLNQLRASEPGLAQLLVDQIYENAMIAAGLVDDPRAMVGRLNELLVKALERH
How it was run: as §1

[2] = molecular target: T3, GLOD4 Glyoxalase domain-containing protein 4 (Homo sapiens, UniProt Q9HC38); conditions: for isoTOP-ABPP reactivity ratio at lysine Q9HC38_K305 / isoTOP-ABPP ratio (R) at liganded lysine Q9HC38_K305 / R value (DMSO/fragment) for probe 1 labeling: 50 uM, in vitro; for isoTOP-ABPP reactivity ratio at lysine Q9HC38_K305 / R value (DMSO/fragment) for probe 1 labeling: 231 sol; for isoTOP-ABPP ratio (R) at liganded lysine Q9HC38_K305: sol, 231; for R value (DMSO/fragment) for probe 1 labeling: Q9HC38_K305
T3 construct: endogenous in cells; host or cells: MDA-MB-231 (soluble fraction of lysate)
T3 sequence (Q9HC38 1-313): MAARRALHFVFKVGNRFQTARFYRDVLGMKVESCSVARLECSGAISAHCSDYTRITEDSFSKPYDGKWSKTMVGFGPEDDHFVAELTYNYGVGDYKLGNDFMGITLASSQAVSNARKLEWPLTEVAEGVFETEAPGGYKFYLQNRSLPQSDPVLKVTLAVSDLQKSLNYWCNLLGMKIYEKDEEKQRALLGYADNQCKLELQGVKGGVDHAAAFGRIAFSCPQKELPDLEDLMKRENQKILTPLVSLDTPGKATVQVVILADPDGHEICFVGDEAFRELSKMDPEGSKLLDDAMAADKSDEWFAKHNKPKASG
How it was run: as §1

Compound: O=C(CCc1ccc2c(c1)OCO2)Oc1ccc([N+](=O)[O-])cc1[N+](=O)[O-] [fragment 45, 2,4-Dinitrophenyl 3-(benzo[d][1,3]dioxol-5-yl)propanoate]
isoTOP-ABPP ratio, lysine Q9NTK5_K248 (OLA1 Obg-like ATPase 1; 50 uM_231_sol_in vitro): 1.0
isoTOP-ABPP ratio, lysine Q12931_K699 ([1]; 50 uM_231_sol_in vitro): 1.4
isoTOP-ABPP ratio, lysine Q9HC38_K305 ([2]; 50 uM_231_sol_in vitro): 0.7

Compound: O=C(CC12CC3CC(CC(C3)C1)C2)Oc1ccc([N+](=O)[O-])cc1[N+](=O)[O-] [fragment 38, 2,4-Dinitrophenyl 2-(adamantan-1-yl)acetate]
isoTOP-ABPP ratio (R) at liganded lysine Q9NTK5_K248 (OLA1 Obg-like ATPase 1): 0.9
isoTOP-ABPP ratio (R) at liganded lysine Q12931_K699 [1]: 1.4
isoTOP-ABPP ratio (R) at liganded lysine Q9HC38_K305 [2]: 20.0

Compound: COc1cc(CCC(=O)Oc2c(F)c(F)c(F)c(F)c2F)cc(OC)c1OC [fragment 23, Pentafluorophenyl 3-(3,4,5-trimethoxyphenyl)propanoate]
R value (DMSO/fragment) for probe 1 labeling (OLA1 Obg-like ATPase 1): 1.0
R value (DMSO/fragment) for probe 1 labeling [1]: 1.0
R value (DMSO/fragment) for probe 1 labeling [2]: 0.9

Compound: Cn1cc(CC(=O)Oc2c(F)c(F)c(F)c(F)c2F)c2ccccc21 [fragment 22, Pentafluorophenyl 2-(1-methyl-1H-indol-3-yl)acetate]
R value (DMSO/fragment) for probe 1 labeling (OLA1 Obg-like ATPase 1): 1.0
R value (DMSO/fragment) for probe 1 labeling [1]: 1.1
R value (DMSO/fragment) for probe 1 labeling [2]: 0.7

Compound: O=C(Oc1ccc([N+](=O)[O-])cc1[N+](=O)[O-])c1ccc2ccccc2n1 [fragment 35, 2,4-Dinitrophenyl quinoline-2-carboxylate]
isoTOP-ABPP ratio (R) at liganded lysine Q9NTK5_K248 (OLA1 Obg-like ATPase 1): 1.0
isoTOP-ABPP ratio (R) at liganded lysine Q12931_K699 [1]: 0.9
isoTOP-ABPP ratio (R) at liganded lysine Q9HC38_K305 [2]: 0.4

Compound: O=C(Oc1ccc([N+](=O)[O-])cc1[N+](=O)[O-])c1cc(C(F)(F)F)cc(C(F)(F)F)c1 [fragment 31, 2,4-Dinitrophenyl 3,5-bis(trifluoromethyl)benzoate]
isoTOP-ABPP reactivity ratio at lysine Q9NTK5_K248 (OLA1 Obg-like ATPase 1): 1.0
isoTOP-ABPP reactivity ratio at lysine Q12931_K699 [1]: 1.0
isoTOP-ABPP reactivity ratio at lysine Q9HC38_K305 [2]: 0.5

Compound: O=C(Oc1ccc([N+](=O)[O-])cc1[N+](=O)[O-])c1ccccc1Nc1cccc(C(F)(F)F)c1 [fragment 40, 2,4-Dinitrophenyl 2-((3-(trifluoromethyl)phenyl)amino)benzoate]
isoTOP-ABPP ratio (R) at liganded lysine Q9NTK5_K248 (OLA1 Obg-like ATPase 1): 0.9
isoTOP-ABPP ratio (R) at liganded lysine Q12931_K699 [1]: 0.9
isoTOP-ABPP ratio (R) at liganded lysine Q9HC38_K305 [2]: 0.8

The next lines start with the values.

isoTOP-ABPP reactivity ratio at lysine Q9NTK5_K248 (OLA1 Obg-like ATPase 1): 1.1
isoTOP-ABPP reactivity ratio at lysine Q12931_K699 [1]: 0.7
isoTOP-ABPP reactivity ratio at lysine Q9HC38_K305 [2]: 0.5
Compound: O=C(CN1C(=O)c2ccccc2C1=O)Oc1c(F)c(F)c(F)c(F)c1F [fragment 27, Pentafluorophenyl 2-(1,3-dioxoisoindolin-2-yl)acetate]

isoTOP-ABPP ratio, lysine Q9NTK5_K248 (OLA1 Obg-like ATPase 1; 100 uM_231_sol_in vitro): 7.0
isoTOP-ABPP ratio, lysine Q12931_K699 ([1]; 100 uM_231_sol_in vitro): 1.2
isoTOP-ABPP ratio, lysine Q9HC38_K305 ([2]; 100 uM_231_sol_in vitro): 1.2
Compound: COC(=O)NC(=NC(=O)OCC1c2ccccc2-c2ccccc21)n1cccn1 [fragment 49, N-Methoxycarbonyl-N′-9-fluorenylmethoxycarbonyl-pyrazole-1-carboxamidine]

isoTOP-ABPP reactivity ratio at lysine Q9NTK5_K248 (OLA1 Obg-like ATPase 1): 1.1
isoTOP-ABPP reactivity ratio at lysine Q12931_K699 [1]: 0.9
isoTOP-ABPP reactivity ratio at lysine Q9HC38_K305 [2]: 1.5
Compound: O=C(Oc1c(F)c(F)c(F)c(F)c1F)C1CCN(C(=O)OCc2ccccc2)CC1 [fragment 24, 1-Benzyl 4-(pentafluorophenyl) piperidine-1,4-dicarboxylate]

isoTOP-ABPP reactivity ratio at lysine Q9NTK5_K248 (OLA1 Obg-like ATPase 1): 1.0
isoTOP-ABPP reactivity ratio at lysine Q12931_K699 [1]: 0.9
isoTOP-ABPP reactivity ratio at lysine Q9HC38_K305 [2]: 0.4
Compound: O=C(Oc1c(F)c(F)c(F)c(F)c1F)c1ccc2ccccc2n1 [fragment 25, Pentafluorophenyl quinoline-2-carboxylate]

R value (DMSO/fragment) for probe 1 labeling (OLA1 Obg-like ATPase 1): 0.9
R value (DMSO/fragment) for probe 1 labeling [1]: 1.0
R value (DMSO/fragment) for probe 1 labeling [2]: 0.8
Compound: O=C(Oc1c(F)c(F)c(F)c(F)c1F)C(c1ccccc1)c1ccccc1 [fragment 20, Pentafluorophenyl 2,2-diphenylacetate]

isoTOP-ABPP ratio, lysine Q9NTK5_K248 (OLA1 Obg-like ATPase 1; 100 uM_231_sol_in vitro): 2.1
isoTOP-ABPP ratio, lysine Q12931_K699 ([1]; 100 uM_231_sol_in vitro): 1.1
isoTOP-ABPP ratio, lysine Q9HC38_K305 ([2]; 100 uM_231_sol_in vitro): 1.1
Compound: CC(C)(C)OC(=O)N=C(NC(=O)OC(C)(C)C)n1cccn1 [fragment 50, reference compound]
